Source: patent US4443436A, “C-20-Modified macrolide derivatives of the macrolide antibiotics tylosin, desmycosin, macrocin, and lactenocin” (Eli Lilly and Company, priority 1982, dated 1984)
≈ marks a conversion by molar mass, not a printed value. Read-outs that look alike come from different tables or passages of the source.

Columns and labels:
[1] = tested on: Staphylococcus aureus X1.1; experiment: MIC, standard agar-dilution assay, Staphylococcus aureus X1.1; type: cell-based
[2] = tested on: Staphylococcus aureus X400; experiment: MIC, standard agar-dilution assay, Staphylococcus aureus X400; type: cell-based
[3] = tested on: Staphylococcus aureus S13E; experiment: MIC, standard agar-dilution assay, Staphylococcus aureus S13E; type: cell-based
[4] = tested on: Staphylococcus epidermidis EPI1; experiment: MIC, standard agar-dilution assay, Staphylococcus epidermidis EPI1; type: cell-based
[5] = tested on: Staphylococcus epidermidis EPI2; experiment: MIC, standard agar-dilution assay, Staphylococcus epidermidis EPI2; type: cell-based
[6] = tested on: Streptococcus pyogenes C203; experiment: MIC, standard agar-dilution assay, Streptococcus pyogenes C203; type: cell-based
[7] = tested on: Streptococcus Group D X66; experiment: MIC, standard agar-dilution assay, Streptococcus Group D X66; type: cell-based
Streptococcus Group 9960 = experiment: MIC, standard agar-dilution assay, Streptococcus Group 9960; type: cell-based; conditions: Streptococcus Group 9960, agar dilution
[8] = tested on: Haemophilus influenzae Holt; experiment: MIC, standard agar-dilution assay, Haemophilus influenzae Holt; type: cell-based; conditions: Haemophilus influenzae Holt; ampicillin-sensitive strain; agar dilution
[9] = tested on: Haemophilus influenzae R252; experiment: MIC, standard agar-dilution assay, Haemophilus influenzae R252; type: cell-based
Staphylococcus aureus = experiment: MIC, broth-dilution microtiter test, Staphylococcus aureus; type: cell-based
From the text: (§1) The MIC's in Table X were obtained using conventional broth-dilution microtiter tests.

Streptococcus bovis 80 = experiment: MIC, broth-dilution microtiter test, Streptococcus bovis 80; type: cell-based
From the text: as §1

[10] = tested on: Pasteurella multocida 17E; experiment: MIC, broth-dilution microtiter test, Pasteurella multocida 17E; type: cell-based; conditions: Pasteurella multocida 17E, bovine isolate, broth-dilution microtiter
From the text: as §1

[11] = tested on: Pasteurella multocida 60A; experiment: MIC, broth-dilution microtiter test, Pasteurella multocida 60A; type: cell-based
From the text: as §1

[12] = tested on: Pasteurella hemolytica 22C; experiment: MIC, broth-dilution microtiter test, Pasteurella hemolytica 22C; type: cell-based; conditions: Pasteurella hemolytica 22C, broth-dilution microtiter
From the text: as §1

Mycoplasma gallisepticum = experiment: MIC, broth-dilution microtiter test, Mycoplasma gallisepticum; type: cell-based
From the text: as §1

Mycoplasma synoviae = experiment: MIC, broth-dilution microtiter test, Mycoplasma synoviae; type: cell-based
From the text: as §1

Mycoplasma hyorhinis = experiment: MIC, broth-dilution microtiter test, Mycoplasma hyorhinis; type: cell-based; conditions: Mycoplasma hyorhinis, broth-dilution microtiter
From the text: as §1

Mycoplasma hyopneumoniae = experiment: MIC, broth-dilution microtiter test, Mycoplasma hyopneumoniae; type: cell-based
From the text: as §1

[13] = tested on: Streptococcus pyogenes C203; experiment: In vivo protection of mice experimentally infected with S. pyogenes C203; conditions: mice, doses given 1 and 4 hours post-infection; for ED50: Streptococcus pyogenes
Method: The C-20 modified derivatives of this invention have shown in vivo antimicrobial activity against experimentally-induced infections in laboratory animals. When two doses of test compound were administered to mice experimentally infected with S. pyogenes C203, the activity observed was measured as an ED50 value [effective dose in mg/kg to protect 50% of the test animals: see Warren Wick, et al., J. Bacteriol. 81, 233-235 (1961)].

[14] = tested on: Staphylococcus aureus V41; experiment: MIC, standard agar-dilution assay, Staphylococcus aureus V41; type: cell-based
[15] = tested on: Streptococcus pneumoniae Park I; experiment: microbe, parasite or virus in culture; type: cell-based
[16] = Staphylococcus aureus X1.1, agar dilution
[17] = Staphylococcus aureus X400, methicillin-resistant strain, agar dilution
[18] = Staphylococcus aureus S13E, agar dilution
[19] = Staphylococcus epidermidis EPI1, agar dilution
[20] = Staphylococcus epidermidis EPI2, agar dilution
[21] = Streptococcus pyogenes C203, agar dilution
[22] = Streptococcus Group D X66, agar dilution
[23] = Haemophilus influenzae R252, ampicillin-resistant strain, agar dilution
[24] = Streptococcus bovis 80, broth-dilution microtiter
[25] = Pasteurella multocida 60A, avian isolate, broth-dilution microtiter
[26] = Mycoplasma gallisepticum, broth-dilution microtiter
[27] = Mycoplasma hyopneumoniae, broth-dilution microtiter
[28] = Staphylococcus aureus V41, penicillin-resistant strain, agar dilution
[29] = Streptococcus pneumoniae Park I, agar dilution

20-DH-20-O-(Phenylsulfinyl)desmycosin [Compound 25]
MIC [1, 16]: 0.25 µg/mL | MIC [2, 17]: 0.25 µg/mL | MIC [3, 18]: 0.25 µg/mL | MIC [4, 19]: 0.25 µg/mL | MIC [5, 20]: 0.12 µg/mL | MIC [6, 21]: 0.25 µg/mL | MIC [7, 22]: 4 µg/mL | MIC (Streptococcus Group 9960): 4 µg/mL | MIC [8]: 8 µg/mL | MIC [9, 23]: 4 µg/mL | MIC (Staphylococcus aureus; broth-dilution microtiter): 0.39 µg/mL | MIC (Streptococcus bovis 80; [24]): 3.12 µg/mL | MIC [10]: 12.5 µg/mL | MIC [11, 25]: 6.25 µg/mL | MIC [12]: 12.5 µg/mL | MIC (Mycoplasma gallisepticum; [26]): < 0.05 µg/mL | MIC (Mycoplasma synoviae; Mycoplasma synoviae, broth-dilution microtiter): 0.19 µg/mL | MIC (Mycoplasma hyorhinis): -- (Not active at 50 mcg/ml, the highest level tested) | MIC (Mycoplasma hyopneumoniae; [27]): 12.5 µg/mL | ED50, Oral ([13]; oral): 45 mg/kg × 2 | ED50, Subcutaneous ([13]; subcutaneous): 5.0 mg/kg × 2

CCC(=O)OC1C(C)OC(OC2C(CCN3C(=O)c4ccccc4C3=O)CC(C)C(=O)C=CC(C)=CC(COC3OC(C)C(O)C(OC)C3OC)C(CC)OC(=O)CC(O)C2C)C(OC(=O)CC)C1N(C)C (stereo not drawn) [Compound 66, 20-DH-DO-20-N-Phthalimido-2',4'-di-O-propionyldesmycosin]
MIC [1, 16]: 0.5 µg/mL (≈ 0.493 µM) | MIC [14, 28]: 0.5 µg/mL (≈ 0.493 µM) | MIC [2, 17]: 1 µg/mL (≈ 0.985 µM) | MIC [3, 18]: 0.5 µg/mL (≈ 0.493 µM) | MIC [4, 19]: 0.5 µg/mL (≈ 0.493 µM) | MIC [5, 20]: 0.25 µg/mL (≈ 0.246 µM) | MIC [6, 21]: 2 µg/mL (≈ 1.97 µM) | MIC [15, 29]: 0.5 µg/mL (≈ 0.493 µM) | MIC [7, 22]: 8 µg/mL (≈ 7.88 µM) | MIC (Streptococcus Group 9960): 8 µg/mL (≈ 7.88 µM) | MIC [8]: 64 µg/mL (≈ 63 µM) | MIC [9, 23]: 64 µg/mL (≈ 63 µM) | MIC (Staphylococcus aureus; broth-dilution microtiter): 0.78 µg/mL (≈ 0.768 µM) | MIC (Streptococcus bovis 80; [24]): 6.25 µg/mL (≈ 6.16 µM) | MIC [10]: 25 µg/mL (≈ 24.6 µM) | MIC [11, 25]: 25 µg/mL (≈ 24.6 µM) | MIC [12]: 25 µg/mL (≈ 24.6 µM) | MIC (Mycoplasma gallisepticum; [26]): 0.09 µg/mL (≈ 0.0887 µM) | MIC (Mycoplasma hyorhinis): 50 µg/mL (≈ 49.3 µM) | MIC (Mycoplasma hyopneumoniae; [27]): 25 µg/mL (≈ 24.6 µM) | ED50, Oral ([13]; oral): 31 mg/kg × 2 | ED50, Subcutaneous ([13]; subcutaneous): > 6.3 mg/kg × 2

CCC(=O)OC1C(OC2C(CCCl)CC(C)C(=O)C=CC(C)=CC(COC3OC(C)C(O)C(OC)C3OC)C(CC)OC(=O)CC(O)C2C)OC(C)C(O)C1N(C)C (stereo not drawn) [Compound 69, 20-DH-DO-20-Chloro-2'-O-propionyldesmycosin]
MIC [1, 16]: 0.25 µg/mL (≈ 0.295 µM) | MIC [14, 28]: 0.25 µg/mL (≈ 0.295 µM) | MIC [2, 17]: 0.5 µg/mL (≈ 0.589 µM) | MIC [3, 18]: 0.25 µg/mL (≈ 0.295 µM) | MIC [4, 19]: 0.25 µg/mL (≈ 0.295 µM) | MIC [5, 20]: 0.12 µg/mL (≈ 0.141 µM) | MIC [6, 21]: 2 µg/mL (≈ 2.36 µM) | MIC [15, 29]: 0.25 µg/mL (≈ 0.295 µM) | MIC [7, 22]: 8 µg/mL (≈ 9.43 µM) | MIC (Streptococcus Group 9960): 8 µg/mL (≈ 9.43 µM) | MIC [8]: 16 µg/mL (≈ 18.9 µM) | MIC [9, 23]: 16 µg/mL (≈ 18.9 µM) | MIC (Staphylococcus aureus; broth-dilution microtiter): 0.78 µg/mL (≈ 0.919 µM) | MIC (Streptococcus bovis 80; [24]): 6.25 µg/mL (≈ 7.37 µM) | MIC [10]: 25 µg/mL (≈ 29.5 µM) | MIC [11, 25]: 2.5 µg/mL (≈ 2.95 µM) | MIC [12]: 25 µg/mL (≈ 29.5 µM) | MIC (Mycoplasma gallisepticum; [26]): 0.39 µg/mL (≈ 0.46 µM) | MIC (Mycoplasma hyorhinis): 50 µg/mL (≈ 58.9 µM) | MIC (Mycoplasma hyopneumoniae; [27]): 12.5 µg/mL (≈ 14.7 µM) | ED50, Oral ([13]; oral): 27 mg/kg × 2 | ED50, Subcutaneous ([13]; subcutaneous): 3.3 mg/kg × 2

CCC1OC(=O)CC(O)C(C)C(OC2OC(C)C(O)C(N(C)C)C2O)C(CCOc2cccc(N(C)C)c2)CC(C)C(=O)C=CC(C)=CC1COC1OC(C)C(O)C(OC)C1OC (stereo not drawn) [Compound 39, 20-DH-20-O-[m-(N,N-Dimethylamino)phenyl]desmycosin]
MIC ([1]; Staphylococcus aureus, X1.1): 0.5 µg/mL (≈ 0.56 µM) | MIC ([14]; Staphylococcus aureus, V41): 0.5 µg/mL (≈ 0.56 µM) | MIC ([2]; Staphylococcus aureus, X400): 0.5 µg/mL (≈ 0.56 µM) | MIC ([3]; Staphylococcus aureus, S13E): 0.5 µg/mL (≈ 0.56 µM) | MIC ([4]; Staphylococcus epidermidis, EPI1): 0.5 µg/mL (≈ 0.56 µM) | MIC ([5]; Staphylococcus epidermidis, EPI2): 0.25 µg/mL (≈ 0.28 µM) | MIC ([6]; Streptococcus pyogenes, C203): 0.25 µg/mL (≈ 0.28 µM) | MIC ([15]; Streptococcus pneumoniae): 1 µg/mL (≈ 1.12 µM) | MIC [7]: 4 µg/mL (≈ 4.48 µM) | MIC (Streptococcus Group 9960; GROUP9960, read-out: MIC): 8 µg/mL (≈ 8.96 µM) | MIC ([9]; Haemophilus influenzae, R252): 16 µg/mL (≈ 17.9 µM) | MIC (Staphylococcus aureus): 6.25 µg/mL (≈ 7 µM) | MIC (Streptococcus bovis 80; Streptococcus equinus, 80): 1.56 µg/mL (≈ 1.75 µM) | MIC ([10]; read-out: MIC): 25 µg/mL (≈ 28 µM) | MIC ([11]; Pasteurella multocida, 60A): 12.5 µg/mL (≈ 14 µM) | MIC ([12]; read-out: MIC): > 50 µg/mL | MIC (Mycoplasma gallisepticum; Mycoplasmoides gallisepticum): 1.56 µg/mL (≈ 1.75 µM) | MIC (Mycoplasma synoviae; Mycoplasmopsis synoviae): 1.56 µg/mL (≈ 1.75 µM) | MIC (Mycoplasma hyorhinis; read-out: MIC): 25 µg/mL (≈ 28 µM) | MIC (Mycoplasma hyopneumoniae; Mesomycoplasma hyopneumoniae): 6.25 µg/mL (≈ 7 µM) | ED50 ([13]; C203, sc, subcutaneous, read-out: ED50, Subcutaneous): 6.7 mg/kg | ED50 ([13]; C203, oral, read-out: ED50, Oral): 19 mg/kg
